Values after ≈ are worked out from the molar mass of the structure shown.
Columns and labels:
[1] = test system: E. coli JW5503 transformed with pJC27 plasmids; assay: Translation accuracy reporter (mutant β-galactosidase, X-Gal staining); assay type: cell-based; conditions: 4a,b, 6a,b and tobramycin 50 mg/mL; streptomycin, kanamycin 5 mg/mL; rifampicin 1 mg/mL
Excerpt: It is known that tobramycin inhibits protein biosynthesis by the blocking of initiation and inducing translation errors. We have tested whether the new tobramycin derivatives 4a,b and 6a,b retain the ability to induce translation errors. This assay uses an E. coli strain with a plasmid construct that encodes beta-galactosidase in such a way that a functional protein is only synthesized in the presence of translation errors. If the mechanism of action of the antibiotic is related to the translation errors, we observe indigo blue staining along the edge of the inhibition zone because functional b-galactosidase degrades the substrate X-Gal. As a result, if the antibiotic causes translation errors, blue staining forms around the edge of the inhibition zone. […] According to this, an introduction at the 6″-position of the aminoalkylamino or guanidinoalkylamino residues of tobramycin retains an original mechanism of aminoglycoside’s antibacterial activity affecting the protein synthesis.
To qualitatively evaluate translation accuracy in the presence of antibiotics, E. coli JW5503 [34] (kanamycin resistance cassette removed as per) transformed with pJC27 plasmids was utilized. The plasmids encode the β-galactosidase gene containing a mutation in its active center (E537: GAA→GAC/GGG), alongside a control plasmid without the mutation. Active β-galactosidase synthesis could only occur if translation errors were introduced. Petri dishes (9 cm) containing 20 mL of solid LB agar (1.5%) supplemented with chloramphenicol (11.3 μg/mL) and X-Gal (80 μg/mL) were prepared. A secondary layer comprising 3.5 mL of LB agar (0.6%), supplemented with 11.3 μg/mL chloramphenicol and 0.5 mL of liquid culture (A600~1.0), was added and allowed to solidify. Antibiotics were applied to the plates in 1 μL aliquots at the following concentrations: 50 mg/mL for 4a, 4b, 6a, 6b, and tobramycin; 5 mg/mL for streptomycin and kanamycin; and 1 mg/mL for rifampicin. Plates were incubated at 37 °C for 18 h. […] Results were documented using a Samsung Galaxy Tab A71 camera.

[2] = test system: E. coli JW5503 kanS EF-G P610L; assay: MIC in LB medium, aminoglycoside-resistant mutant EF-G P610L; assay type: cell-based; conditions: Escherichia coli, 18 h
Procedure: The determination of the minimum inhibitory concentration (MIC) was performed on three strains from the working collection of MSU: E. coli JW5503 [34], which lacked a kanamycin resistance cassette removed as per the method outlined in [39], and two strains derived from this strain through in vivo selection with kanamycin. The latter strains harbored P610T and P610L substitutions in the fusA gene. For the MIC determination, 100 μL (rows 2–11) and 200 μL (row 1) of LB liquid medium containing a 1:1000 dilution of overnight culture was added to each well of a 96-well transparent plate. Subsequently, 2 μL of a 50 μg/mL antibiotic solution was introduced into the first row, and serial two-fold dilutions were performed across each horizontal row, decreasing the antibiotic concentration incrementally. The final two rows were designated as controls: row 12 contained LB medium without cells or antibiotics, and row 11 contained cells without antibiotics. Following 18 h of incubation at 37 °C with constant agitation, the optical density at 590 nm (A590) was measured using a Victor X5 2030 spectrofluorometer (PerkinElmer, Waltham, MA, USA). The MIC was defined as the antibiotic concentration in the first well where no cell growth occurred. Each experiment was conducted in triplicate for all tested antibiotics.

For `NCCCNC[C@H]1O[C@H](O[C@@H]2[C@@H](O)[C@H](O[C@H]3O[C@H](CN)[C@@H](O)C[C@H]3N)[C@@H](N)C[C@H]2N)[C@H](O)[C@@H](N)[C@@H]1O` [Compound 4b, 6″-(3-Aminopropyl-1-amino)-6″-deoxytobramycin acetate], the “induction of translation errors (blue staining at edge of inhibition zone)” value [1] was “caused a blue coloring of the bacterial lawn” and the MIC [2] was 80 µg/mL.

`NCCNC[C@H]1O[C@H](O[C@@H]2[C@@H](O)[C@H](O[C@H]3O[C@H](CN)[C@@H](O)C[C@H]3N)[C@@H](N)C[C@H]2N)[C@H](O)[C@@H](N)[C@@H]1O` [Compound 4a, 6″-(2-Aminoethyamino)-6″-deoxytobramycin acetate] was tested, and the “induction of translation errors (blue staining at edge of inhibition zone)” value [1] was “caused a blue coloring of the bacterial lawn” and the MIC [2] was 40 µg/mL.

`N=C(N)NCCNC[C@H]1O[C@H](O[C@@H]2[C@@H](O)[C@H](O[C@H]3O[C@H](CN)[C@@H](O)C[C@H]3N)[C@@H](N)C[C@H]2N)[C@H](O)[C@@H](N)[C@@H]1O` [Compound 6a, 6″-(2-Guanidinoethylamino)-6″-deoxytobramycin acetate] was tested, and the “induction of translation errors (blue staining at edge of inhibition zone)” value [1] was “caused a blue coloring of the bacterial lawn” and the MIC [2] was 40 µg/mL.

With `N=C(N)NCCCNC[C@H]1O[C@H](O[C@@H]2[C@@H](O)[C@H](O[C@H]3O[C@H](CN)[C@@H](O)C[C@H]3N)[C@@H](N)C[C@H]2N)[C@H](O)[C@@H](N)[C@@H]1O` [Compound 6b, 6″-(3-Guanidinopropyl-1-amino)-6″-deoxytobramycin acetate] the “induction of translation errors (blue staining at edge of inhibition zone)” value [1] was “caused a blue coloring of the bacterial lawn” and the MIC [2] was 80 µg/mL.

For `NC[C@H]1O[C@H](O[C@H]2[C@H](O)[C@@H](O[C@H]3O[C@H](CO)[C@@H](O)[C@H](N)[C@H]3O)[C@H](N)C[C@@H]2N)[C@H](N)C[C@@H]1O` [Tobramycin, tobramycin], the “induction of translation errors (blue staining at edge of inhibition zone)” value [1] was “increase the misreading” and the MIC [2] was 40 µg/mL (≈ 85.6 µM).

Reference: paper PMC11672562, “Synthesis and Antibacterial Activity of New 6″-Modified Tobramycin Derivatives” (Antibiotics, 2024)
